Common to all, as to test: DTP human tumour cell line panel, 48 h
In assay [1] the test system is UACC-62 melanoma.
Assay [2] relates to LOX IMVI melanoma.
In assay [3] the test system is MALME-3M melanoma.
In assay [4] the test system is COLO 205 colon.
For assay [5], the system named is SR leukemia.
Assay [6] deals with HT29 colon.
Assay [7] concerns ACHN renal.
Assay [8] relates to MOLT-4 leukemia.
Assay [9] deals with HOP-62 NSCLC.
Assay [10] relates to U251 CNS.
Assay [11] concerns SNB-75 CNS.
Assay [12] relates to UACC-257 melanoma.
The subject of assay [13] is OVCAR-3 ovarian.
For assay [14], the system named is MDA-MB-435.
The test system of assay [15] is MDA-N.
Assay [16] deals with NCI-H23 lung.
Assay [17] has as its system M14 melanoma.
Assay [18] has as its system HOP-92 NSCLC.
Assay [19] deals with K-562 leukemia.

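Values below derive from 48-hour exposures of cells grown in 96-well plates, with endpoints linearly interpolated between the two concentrations bracketing the appropriate inhibition level. TGI: concentration producing complete growth inhibition.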 Where a SMILES comes first, the peptide text is derived from it. [ ]: non-standard residue; d: D form. The star is where a group is joined. ξ: configuration not given here. dThr(3ξ) = CC(O)[C@@H](N)C(=O)O; dNMeL = CN[C@H](CC(C)C)C(=O)O; OBn = c1ccc(CO*)cc1; ξLac = CC(O)C(=O)O

This passage reports TGI results from PubChem BioAssay (NCI).

Usually TGI stands for the concentration at which net growth stops. High values mean lower sensitivity of the cells, low ones greater sensitivity of the cells. For the compound `CC(=O)OC(C)[C@@H](NC(=O)[C@@H](CC(C)C)N(C)C(=O)[C@@H]1CCCN1C(=O)C(C)O)C(=O)OCc1ccccc1` (stereo partly specified) (H-[ξLac]P[dNMeL][dThr(3ξ)](Ac)-OBn), the TGI in assay [1], in assay [2], in assay [3], in [4], in assay [5] and in assay [6] was over 100 µM throughout. Moreover, the total growth inhibition concentration (TGI) in assay [7], in [8], in [9], in assay [10], in assay [11] and in assay [12] was over 100 µM each time. Moreover, the TGI in [13], in assay [14], in assay [15], in [16], in assay [17] and in assay [18] was over 100 µM each time. This compound also displayed a TGI in assay [19] of over 100 µM.

With `N#CC1=C(S)N(C2OC(CO)C(O)C(O)C2O)C(c2ccccc2)=CC1c1ccccc1` (stereo unspecified), the TGI in assay [1] was 62.7 µM; in assay [2], 86.6 µM; in assay [3], over 100 µM; in assay [4], over 100 µM; in assay [5], over 100 µM; in [6], over 100 µM. Moreover, the total growth inhibition concentration (TGI) in assay [7] is over 100 µM; in assay [8], 86.8 µM; in assay [9], over 100 µM; in [10], over 100 µM; in [11], over 100 µM; in [12], over 100 µM. The TGI in [13] is 98.5 µM; in assay [14] it was over 100 µM; in [15], over 100 µM; in assay [16] it was over 100 µM; in assay [17], over 100 µM; in assay [18] it was over 100 µM. Besides, the TGI in [19] is over 100 µM.

Take `CCCCCC(O)[C@H]1C(=O)C[C@@H](O[Si](C)(C)C(C)(C)C)[C@@H]1/C=C/CCOCc1ccccc1` (stereo partly specified): the concentration for total growth inhibition (TGI) in [1] was 25.1 µM; in assay [2], 43 µM; in assay [3], 28.8 µM; in assay [4], 41.5 µM; in assay [5] it was over 62.9 µM; in assay [6], 22.5 µM. Also, the total growth inhibition concentration (TGI) was 26.2 µM in [7]; over 29.7 µM in assay [8]; 34.1 µM in [9]; 29.6 µM in assay [10]; 32.1 µM in assay [11]; 26.4 µM in assay [12]. The TGI in assay [13] is 28.1 µM; in [14], 22.4 µM; in assay [15] it was over 63.9 µM; in assay [16], 33.3 µM; in assay [17], 34.5 µM; in assay [18] it was 28.1 µM. In addition, in assay [19], the TGI was over 59.4 µM.

Regarding `O=C(c1cccc(OCc2ccccc2)c1OCc1ccccc1)N1CCSC1=S`, the TGI is 42.6 µM in assay [1]; over 100 µM in [2]; over 72.9 µM in assay [3]; 26.4 µM in assay [4]; 45.2 µM in [5]; over 100 µM in assay [6]. The total growth inhibition concentration (TGI) in assay [7] was over 100 µM; in assay [8] it was 38.7 µM; in [9] it was over 100 µM; in assay [10], over 100 µM; in assay [11] it was 34.2 µM; in assay [12] it was over 87.7 µM. For the same compound, the TGI was 62.9 µM in [13]; over 100 µM in [14]; over 100 µM in [15]; 74.9 µM in [16]; over 100 µM in [17]; over 100 µM in assay [18]. In assay [19], this compound gave a TGI of over 100 µM.

`CCOC(=O)C(NC(=O)c1ccccc1)(Nc1ccc(S(=O)(=O)Nc2nc(C)cc(C)n2)cc1)C(F)(F)F` (stereo unspecified): the TGI in assay [1], in assay [2], in [3], in assay [4], in [5] and in [6] was over 100 µM throughout. For the same compound, the TGI in [7], in assay [8], in assay [9], in assay [10], in assay [11] and in [12] was over 100 µM throughout. Also, the TGI in [13], in [14], in [15], in assay [16], in assay [17] and in [18] was over 100 µM throughout. The TGI in assay [19] is over 100 µM.

For `CC1=C2C(=O)OCC23C=COC3(C)O1` (stereo unspecified), the TGI in assay [1] was 46.7 µM; in [2], over 100 µM; in assay [3] it was 74.5 µM; in assay [4], 47.7 µM; in assay [5] it was over 100 µM; in [6], over 100 µM. Also, the TGI was over 100 µM in [7]; over 100 µM in assay [8]; over 100 µM in assay [9]; over 100 µM in [10]; 77.3 µM in assay [11]; over 100 µM in [12]. The TGI in [13] is 97.1 µM; in [14] it was 53.3 µM; in assay [15] it was over 100 µM; in assay [16] it was over 100 µM; in assay [17], 85.5 µM; in [18], over 100 µM. This compound also yielded a TGI in [19] of over 100 µM.

For `CCc1ccc(Nc2cc(=O)[nH]c(SCc3ccccc3)n2)cc1`, the TGI in assay [1], in [2], in [3], in assay [4], in assay [5] and in assay [6] was over 100 µM in each case. Further, the TGI in [7], in [8], in assay [9], in [11], in [12] and in assay [13] was over 100 µM in each case. The TGI in [14], in assay [15], in [16], in assay [17], in [18] and in assay [19] was over 100 µM throughout.

As to `COC(=O)C[C@@H]1C(C)(C)[C@@H]2O[C@@]34C[C@@H]2C(=O)[C@]1(C)[C@H]3CC[C@@]1(C)[C@H](c2ccoc2)OC(=O)C[C@]14O`, the TGI in [1], in assay [2], in assay [3], in assay [4], in assay [5] and in [6] was over 100 µM each time. In addition, the TGI in assay [7], in [8], in assay [9], in assay [10], in assay [11] and in assay [12] was over 100 µM in each case. Also, the TGI in assay [13], in assay [14], in [15], in assay [16], in [17] and in assay [18] was over 100 µM throughout. Moreover, the TGI in assay [19] was over 100 µM.

Take `COC(=O)C(=O)c1c2ccccc2n2ccc3c4ccccc4[nH]c3c12`: the concentration for total growth inhibition (TGI) in assay [1], in assay [2], in assay [3], in [4], in assay [5] and in assay [6] was over 10 µM in each case. For the same compound, the TGI in [7], in assay [8], in assay [9], in assay [10], in [11] and in [12] was over 10 µM each time. Besides, the TGI in assay [13], in [14], in assay [15], in [16], in [17] and in [18] was over 10 µM in each case. The concentration for total growth inhibition (TGI) in assay [19] is over 10 µM.

Consider `CC(=O)OCCCCn1cnc2nc(Nc3ccccc3)nc(Cl)c21`, for which the concentration for total growth inhibition (TGI) in [1], in assay [2], in assay [3], in [4], in [5] and in assay [6] was over 100 µM in each case. Moreover, the TGI in [7], in [8], in assay [9], in [10], in [11] and in assay [12] was over 100 µM in each case. Also, the TGI in assay [13], in [14], in [15], in [17], in [18] and in assay [19] was over 100 µM throughout.

For `CC(=O)OCC1OC(n2c(C)c(N=Nc3ccccc3)c(C)c(C#N)c2=S)C(OC(C)=O)C(OC(C)=O)C1OC(C)=O` (stereo unspecified), the TGI in [1] is 33.3 µM; in assay [2], over 100 µM; in assay [3], over 100 µM; in assay [4], over 100 µM; in assay [5], over 100 µM; in assay [6] it was over 100 µM. Also, the TGI was over 100 µM in assay [7]; over 100 µM in [8]; 34.5 µM in assay [9]; 7.03 µM in assay [11]; over 100 µM in assay [12]; over 100 µM in assay [13]. The TGI in assay [14] was over 100 µM; in assay [15], over 100 µM; in assay [16], over 100 µM; in assay [17], over 100 µM; in [18] it was 28 µM; in [19], over 100 µM.
